Assay results from paper PMC11271513, “Pseudoirreversible inhibition elicits persistent efficacy of a sphingosine 1-phosphate receptor 1 antagonist” (Nature Communications, 2024).
pIC50: −log10 of the molar value.

Assays:
[1] = biological target: T1, Sphingosine 1-phosphate receptor 1 (S1PR1) (Homo sapiens, UniProt P21453, M124V); experiment: functional reversibility assays (internalization, cAMP); format: cell-based
T1 construct: HiBiT-tagged human S1PR1 Val124 mutant in HEK293 cells

[2] = biological target: T2, Sphingosine 1-phosphate receptor 1 (S1PR1) (Homo sapiens, UniProt P21453); experiment: GTP binding assay; also functional reversibility and washout dissociation half-life […] h; format: biochemical
T2 construct: human S1PR1 in HEK293 cell membranes
T2 sequence (P21453 whole entry): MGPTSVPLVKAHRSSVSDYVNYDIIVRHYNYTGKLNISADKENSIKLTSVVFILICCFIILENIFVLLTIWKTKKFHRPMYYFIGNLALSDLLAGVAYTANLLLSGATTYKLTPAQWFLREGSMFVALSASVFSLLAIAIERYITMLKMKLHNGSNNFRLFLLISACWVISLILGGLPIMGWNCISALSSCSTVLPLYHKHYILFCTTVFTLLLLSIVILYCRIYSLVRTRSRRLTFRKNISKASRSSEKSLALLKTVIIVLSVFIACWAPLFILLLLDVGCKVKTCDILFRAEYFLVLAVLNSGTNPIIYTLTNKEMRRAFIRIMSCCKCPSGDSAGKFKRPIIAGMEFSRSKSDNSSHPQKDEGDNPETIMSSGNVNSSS

T1 sequence (P21453 whole entry M124V): as the sequence (P21453 whole entry) above, with M124V counted along it

CCN(c1ccc(Cl)c(C(F)(F)F)c1)C(C)c1ccc(C)c(CN2CC(C(=O)O)C2)c1 (racemic) [KSI-6666] was tested, and the “functional reversibility assays (internalization, cAMP)” value [1] was “in the Val124 mutant, pre-bound KSI-6666 was almost completely replaced by the added agonist” and the pIC50 [2] was 8.19.
